Measurements taken from BigSolDB 2.1.

O=C(O)c1ccccc1
solubility (mole fraction)
Settings	in chloroform	in cyclohexane	in ethanol	in n-heptane	in n-pentane	in toluene
278.15 K	0.074	–	0.128	0.005	0.004	0.035
283.15 K	0.086	0.006	0.139	0.006	0.005	0.043
293.15 K	0.114	0.009	0.166	0.01	0.007	0.062
303.15 K	0.151	0.015	0.196	0.015	0.011	0.089
313.15 K	0.196	0.025	0.234	0.022	–	0.128
323.15 K	0.253	0.039	0.276	0.033	–	0.178
